These results are taken from patent US9670212B2, “Inhibitors of PI3K-delta and methods of their use and manufacture” (Exelixis, Inc., priority 2010, dated 2017).

The experiment concerns the target PI3K delta (Homo sapiens (Human), UniProt O00329). The experiment in a line: Luciferase-coupled chemiluminescence kinase assay (KinaseGlo, ATP consumption). The format is biochemical. The protocol: Kinase activity and compound inhibition were investigated using one or more of the assay formats described below. The ATP concentrations used in the various assays were approximately equal to or less than the KM for each of the respective kinases. Dose-response experiments were performed using an intra-plate dilution scheme with 10 different inhibitor concentrations in a 384-well microtiter plate. […] Typically N should approximate unity. Curve fitting was performed using XLFit or ActivityBase. Luciferase-Coupled Chemiluminescence Assay Protocol
Kinase activity is measured as the percent of ATP consumed following the kinase reaction using luciferase-luciferin-coupled chemiluminescence. […] Kinase reactions were initiated by combining test compounds, kinase, and ATP in a 20 μL volume (6 μL volume for 1536-well plate). The reaction mixture was incubated at ambient temperature for 2 h. Following the kinase reaction, a 20 μL (or 3 μL for 1536-well plate) aliquot of KinaseGlo (Promega) was added and the chemiluminescence signal measured using an EnVision plate reader (Perkin Elmer).
In general terms: In Kinase-Glo more light means more ATP remaining.

Sequence of PI3K delta (O00329 whole entry): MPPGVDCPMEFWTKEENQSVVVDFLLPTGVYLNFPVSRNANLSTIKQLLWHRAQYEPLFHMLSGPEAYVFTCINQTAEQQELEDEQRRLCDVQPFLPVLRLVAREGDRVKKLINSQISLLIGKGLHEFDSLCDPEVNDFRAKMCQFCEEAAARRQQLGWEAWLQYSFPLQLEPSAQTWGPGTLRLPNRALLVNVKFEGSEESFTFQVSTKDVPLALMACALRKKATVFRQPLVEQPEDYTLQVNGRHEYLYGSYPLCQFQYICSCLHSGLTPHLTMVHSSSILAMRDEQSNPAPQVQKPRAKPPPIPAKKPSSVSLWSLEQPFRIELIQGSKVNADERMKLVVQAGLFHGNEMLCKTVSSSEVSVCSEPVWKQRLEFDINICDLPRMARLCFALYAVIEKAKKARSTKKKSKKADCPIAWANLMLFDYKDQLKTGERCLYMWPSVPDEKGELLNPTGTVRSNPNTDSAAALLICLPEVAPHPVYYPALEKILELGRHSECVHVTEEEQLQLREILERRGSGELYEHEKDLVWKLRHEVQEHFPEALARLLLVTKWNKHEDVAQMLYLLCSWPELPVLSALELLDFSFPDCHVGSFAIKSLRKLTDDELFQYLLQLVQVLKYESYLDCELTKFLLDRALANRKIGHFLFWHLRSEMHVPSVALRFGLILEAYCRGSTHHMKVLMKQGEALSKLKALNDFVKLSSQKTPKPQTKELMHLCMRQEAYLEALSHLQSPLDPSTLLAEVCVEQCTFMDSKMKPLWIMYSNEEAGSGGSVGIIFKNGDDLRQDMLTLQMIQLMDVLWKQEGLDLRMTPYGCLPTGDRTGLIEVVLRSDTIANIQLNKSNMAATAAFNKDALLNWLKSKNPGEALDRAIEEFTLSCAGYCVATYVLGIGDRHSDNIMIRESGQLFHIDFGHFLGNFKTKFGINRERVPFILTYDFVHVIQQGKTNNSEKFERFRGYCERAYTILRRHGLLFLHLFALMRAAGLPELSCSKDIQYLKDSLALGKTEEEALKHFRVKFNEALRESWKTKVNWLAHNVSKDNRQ
Sequence of PI3K delta (P27986 whole entry partner): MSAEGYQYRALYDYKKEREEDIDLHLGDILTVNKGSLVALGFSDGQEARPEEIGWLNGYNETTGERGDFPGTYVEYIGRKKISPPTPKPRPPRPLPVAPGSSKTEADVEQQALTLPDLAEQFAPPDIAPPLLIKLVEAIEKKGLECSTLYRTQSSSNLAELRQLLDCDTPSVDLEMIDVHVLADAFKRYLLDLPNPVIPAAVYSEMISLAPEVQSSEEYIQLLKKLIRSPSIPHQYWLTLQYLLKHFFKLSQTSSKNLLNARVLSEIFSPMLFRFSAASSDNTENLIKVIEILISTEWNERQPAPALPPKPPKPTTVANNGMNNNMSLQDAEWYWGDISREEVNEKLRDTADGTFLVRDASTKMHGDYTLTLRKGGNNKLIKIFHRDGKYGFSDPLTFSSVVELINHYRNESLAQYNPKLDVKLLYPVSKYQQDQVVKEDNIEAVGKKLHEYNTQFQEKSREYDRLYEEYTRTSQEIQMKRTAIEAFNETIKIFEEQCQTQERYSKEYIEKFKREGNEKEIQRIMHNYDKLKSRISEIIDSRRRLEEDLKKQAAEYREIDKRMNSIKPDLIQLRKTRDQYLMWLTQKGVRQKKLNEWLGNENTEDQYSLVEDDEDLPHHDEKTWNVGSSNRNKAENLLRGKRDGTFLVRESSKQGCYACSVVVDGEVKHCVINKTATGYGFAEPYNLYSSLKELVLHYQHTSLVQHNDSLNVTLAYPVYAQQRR

In general, IC50 refers to the concentration that gives 50% inhibition. Lower therefore signals higher potency. `Cc1ccccc1-c1nc2c(C)cccc2cc1Cn1nc(I)c2c(N)ncnc21` [Compound 134, 3-iodo-1-{[8-methyl-2-(2-methylphenyl)quinolin-3-yl]methyl}-1H-pyrazolo[3,4-d]pyrimidin-4-amine] displayed an IC50 of less than 50 nM.

Take `Cc1ccccc1-n1c(CSc2ncnc3nc[nH]c23)nc2ccsc2c1=O` [Compound 163, 3-(2-methylphenyl)-2-[(7H-purin-6-ylthio)methyl]thieno[3,2-d]pyrimidin-4(3H)-one]: the half-maximal inhibitory concentration (IC50) is 500 to 1500 nM.

As to `Cc1cccc2cc(CNC(=O)c3nccnc3N)c(N3CCCN(Cc4cccn4C)CC3)nc12` [Compound 57, 3-amino-N-[(8-methyl-2-{4-[(1-methyl-1H-pyrrol-2-yl)methyl]-1,4-diazepan-1-yl}quinolin-3-yl)methyl]pyrazine-2-carboxamide], the concentration for half-maximal inhibition (IC50) lay within 500 to 1500 nM.

With `Cc1cccc2cc(CNC(=O)c3nccnc3N)c(N3CCCN(C(=O)CN(C)C)CC3)nc12` [Compound 137, 3-amino-N-({2-[4-(N,N-dimethylglycyl)-1,4-diazepan-1-yl]-8-methylquinolin-3-yl}methyl}pyrazine-2-carboxamide], the half-maximal inhibitory concentration (IC50) is 250 to 500 nM.

`Cc1ccccc1-c1nc2c(C)cccc2cc1Cn1cnc2c(N)ncnc21` [Compound 189, 9-{[8-methyl-2-(2-methylphenyl)quinolin-3-yl]methyl}-9H-purin-6-amine] showed an IC50 of 50 to 250 nM.

The compound `Cc1ccccc1-n1c(CNC(=O)c2ncccc2N)nc2cccc(C)c2c1=O` [Compound 161, 3-amino-N-{[5-methyl-3-(2-methylphenyl)-4-oxo-3,4-dihydroquinazolin-2-yl]methyl}pyridine-2-carboxamide] had a half-inhibitory concentration (IC50) of 500 to 1500 nM.

Turning to `Cc1ccc(CN2CCCN(c3nc4c(C)cccc4cc3CNC(=O)c3nccnc3N)CC2)o1` [Compound 58, 3-amino-N-[(8-methyl-2-{4-[(5-methylfuran-2-yl)methyl]-1,4-diazepan-1-yl}quinolin-3-yl)methyl]pyrazine-2-carboxamide], the IC50 was 500 to 1500 nM.

`Cc1ccccc1-c1cc2ccccc2nc1CNC(=O)c1ncc(Cl)nc1N` [Compound 107, 3-amino-5-chloro-N-{[3-(2-methylphenyl)quinolin-2-yl]methyl}pyrazine-2-carboxamide]: the IC50 is 500 to 1500 nM.

`CNCCCN(C)c1nc2c(C)cccc2cc1CNC(=O)c1nccnc1N` [Compound 133, 3-amino-N-[(8-methyl-2-{methyl[3-(methylamino)propyl]amino}quinolin-3-yl)methyl]pyrazine-2-carboxamide] came in with an IC50 of 50 to 250 nM.

As for `Cc1cccc2cc(Cn3cnc4c(N)ncnc43)c(N(C)CC3CCCCN3C)nc12` (stereo not drawn) [Compound 3, 3-[(6-amino-9H-purin-9-yl)methyl]-N,8-dimethyl-N-[(1-methylpiperidin-2-yl)methyl]quinolin-2-amine], the IC50 is less than 50 nM.

Turning to `CCCCN(C)c1nc2c(C)cccc2cc1CNc1ncnc2[nH]cnc12` [Compound 26, N-butyl-N,8-dimethyl-3-[(9H-purin-6-ylamino)methyl]quinolin-2-amine], the IC50 was 50 to 250 nM.

`Cc1cccc2cc(CNC(=O)c3nccnc3N)c(N3CCC(NCC(=O)N(C)C)C3)nc12` (stereo not drawn) [Compound 44, 3-amino-N-{[2-(3-{[2-(dimethylamino)-2-oxoethyl]amino}pyrrolidin-1-yl)-8-methylquinolin-3-yl]methyl}pyrazine-2-carboxamide] came in with an IC50 of 500 to 1500 nM.

Consider `Cc1cccc2cc(Cn3cnc4c(N)ncnc43)c(NC3CCN(C)CC3)nc12` [Compound 164, 3-[(6-amino-9H-purin-9-yl)methyl]-8-methyl-N-(1-methylpiperidin-4-yl)quinolin-2-amine], for which the IC50 fell in the range of 500 to 1500 nM.

As to `Cc1cccc2cc(CNC(=O)c3nccnc3N)c(N(C)CCN(C)Cc3ccccn3)nc12` [Compound 68, 3-amino-N-{[8-methyl-2-(methyl{2-[methyl(pyridin-2-ylmethyl)amino]ethyl}amino)quinolin-3-yl]methyl}pyrazine-2-carboxamide], the IC50 was in the range of 50 to 250 nM.

`CNCCN(C)c1nc2c(C)cccc2cc1COc1ccc(OC)cc1` [Compound 23, N,N′-dimethyl-N-[8-methyl-3-({[4-(methyloxy)phenyl]oxy}methyl)quinolin-2-yl]ethane-1,2-diamine]: the IC50 was in the range of 500 to 1500 nM.

The compound `CCCN1CCC[C@@H]1C(=O)N(C)CCN(C)c1nc2c(C)cccc2cc1CNC(=O)c1nccnc1N` [Compound 67, 3-amino-N-{[8-methyl-2-(methyl{2-[methyl(1-propyl-D-prolyl)amino]ethyl}amino)quinolin-3-yl]methyl}pyrazine-2-carboxamide] showed a half-maximal inhibitory concentration (IC50) of less than 50 nM.

`Cc1cccc2cc(CNC(=O)c3nccnc3N)c(N(C)CCN(C)C(=O)[C@@H]3CCCN3C)nc12` [Compound 113, 3-amino-N-{[8-methyl-2-(methyl{2-[methyl(1-methyl-L-prolyl)amino]ethyl}amino)quinolin-3-yl]methyl}pyrazine-2-carboxamide] came in with a half-inhibitory concentration (IC50) of 50 to 250 nM.

Regarding `Cc1cccc2cc(CNC(=O)c3nccnc3N)c(N(C)CCN(C)CC(=O)N3CCOCC3)nc12` [Compound 77, 3-amino-N-{[8-methyl-2-(methyl{2-[methyl(2-morpholin-4-yl-2-oxoethyl)amino]ethyl}amino)quinolin-3-yl]methyl}pyrazine-2-carboxamide], the IC50 is 50 to 250 nM.

Regarding `CC(=O)N1CCN(c2nc3c(C)cccc3cc2Cn2cnc3c(N)ncnc32)CC1` [Compound 166, 9-{[2-(4-acetylpiperazin-1-yl)-8-methylquinolin-3-yl]methyl}-9H-purin-6-amine], the half-inhibitory concentration (IC50) lay within 50 to 250 nM.

In the case of `Cc1cccc2cc(CNC(=O)c3nccnc3N)c(N(C)CCN(C)C(=O)Cn3ccnc3C)nc12` [Compound 86, 3-amino-N-({8-methyl-2-[methyl(2-{methyl[(2-methyl-1H-imidazol-1-yl)acetyl]amino}ethyl)amino]quinolin-3-yl}methyl)pyrazine-2-carboxamide], the half-inhibitory concentration (IC50) is less than 50 nM.

As for `Cc1cccc2cc(CNC(=O)c3nccnc3N)c(NCc3cccnc3)nc12` [Compound 95, 3-amino-N-({8-methyl-2-[(pyridin-3-ylmethyl)amino]quinolin-3-yl}methyl)pyrazine-2-carboxamide], the IC50 fell in the range of 500 to 1500 nM.

In turn, `CNCCN(C)c1nc2c(C)cccc2cc1CNC(=O)C1(C(=O)NC)CC1` [Compound 40, N-methyl-N′-[(8-methyl-2-{methyl[2-(methylamino)ethyl]amino}quinolin-3-yl)methyl]cyclopropane-1,1-dicarboxamide] registered a concentration for half-maximal inhibition (IC50) of 500 to 1500 nM.

`Nc1nccnc1C(=O)NCc1nc2ccccc2cc1-c1ccccc1CN1CCCCC1` [Compound 59, 3-amino-N-({3-[2-(piperidin-1-ylmethyl)phenyl]quinolin-2-yl}methyl)pyrazine-2-carboxamide] gave an IC50 of 50 to 250 nM.

In turn, `Cc1cccc2cc(CNC(=O)c3nccnc3N)c(N(C)CCN(C)c3cnccn3)nc12` [Compound 90, 3-amino-N-{[8-methyl-2-(methyl{2-[methyl(pyrazin-2-yl)amino]ethyl}amino)quinolin-3-yl]methyl}pyrazine-2-carboxamide] gave a half-maximal inhibitory concentration (IC50) of 500 to 1500 nM.

Turning to `Cc1cccc2cc(CNC(=O)c3nccnc3N)c(N(C)CC3CCCCN3C)nc12` (stereo not drawn) [Compound 39, 3-amino-N-[(8-methyl-2-{methyl[(1-methylpiperidin-2-yl)methyl]amino}quinolin-3-yl)methyl]pyrazine-2-carboxamide], the IC50 was less than 50 nM.

Regarding `Cc1ccccc1-c1cc2ccccc2nc1CNc1ncnc2[nH]cnc12` [Compound 155, N-{[3-(2-methylphenyl)quinolin-2-yl]methyl}-9H-purin-6-amine], the 50% inhibitory concentration (IC50) lay in the range of 50 to 250 nM.

`Cc1cccc2cc(CNC(=O)c3nccnc3N)c(NCCN(C)C)nc12` [Compound 129, 3-amino-N-[(2-{[2-(dimethylamino)ethyl]amino}-8-methylquinolin-3-yl)methyl]pyrazine-2-carboxamide] came in with an IC50 of 500 to 1500 nM.

`Cc1ccccc1-c1cc2ccccc2nc1CNC(=O)c1cncnc1N` [Compound 108, 4-amino-N-{[3-(2-methylphenyl)quinolin-2-yl]methyl}pyrimidine-5-carboxamide]: the IC50 lay in the range of 500 to 1500 nM.

For `Cc1cccc2cc(CNC(=O)c3nccnc3N)c(N(C)CCCN(C)C(=O)CN(C)C)nc12` [Compound 136, 3-amino-N-({2-[{3-[(N,N-dimethylglycyl)(methyl)amino]propyl}(methyl)amino]-8-methylquinolin-3-yl}methyl)pyrazine-2-carboxamide], the IC50 is less than 50 nM.

As to `Cc1cccc2cc(CNC(=O)c3nccnc3N)c(N(C)C3CCN(C)C3)nc12` (stereo not drawn) [Compound 98, 3-amino-N-({8-methyl-2-[methyl(1-methylpyrrolidin-3-yl)amino]quinolin-3-yl}methyl)pyrazine-2-carboxamide], the concentration for half-maximal inhibition (IC50) fell in the range of 50 to 250 nM.

`Cc1ccccc1-c1cc2ccccc2nc1C(C)n1nc(I)c2c(N)ncnc21` (stereo not drawn) [Compound 117, 3-iodo-1-{1-[3-(2-methylphenyl)quinolin-2-yl]ethyl}-1H-pyrazolo[3,4-d]pyrimidin-4-amine] had an IC50 of less than 50 nM.

Compound `Nc1nccnc1C(=O)NCc1nc2ccccc2cc1Br` [Compound 93, 3-amino-N-[(3-bromoquinolin-2-yl)methyl]pyrazine-2-carboxamide] came in with a concentration for half-maximal inhibition (IC50) of 500 to 1500 nM.

With `Cc1cccc2cc(Cn3cnc4c(N)ncnc43)c(N(C)CCN(C)C(=O)Cn3cccn3)nc12` [Compound 28, N-{2-[{3-[(6-amino-9H-purin-9-yl)methyl]-8-methylquinolin-2-yl}(methyl)amino]ethyl}-N-methyl-2-(1H-pyrazol-1-yl)acetamide], the IC50 was less than 50 nM.
